Measured values taken from PubChem BioAssay (NCI).
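GI50 marks 50% less growth. TGI denotes the concentration required for complete inhibition of growth.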

Columns and labels:
Test in all cases: NCI anticancer screen, dose series, 384-well format
786-0 renal = tested on: 786-0 renal
A498 renal = tested on: A498 renal
A549 NSCLC = tested on: A549 NSCLC
ACHN renal = tested on: ACHN renal
CCRF-CEM leukemia = tested on: CCRF-CEM leukemia
COLO 205 colon = tested on: COLO 205 colon
HCT-15 colon = tested on: HCT-15 colon
HL-60(TB) leukemia = tested on: HL-60(TB) leukemia
HS 578T breast = tested on: HS 578T breast
HT29 colon = tested on: HT29 colon
IGROV1 ovarian = tested on: IGROV1 ovarian
K-562 leukemia = tested on: K-562 leukemia
KM12 colon = tested on: KM12 colon
LOX IMVI melanoma = tested on: LOX IMVI melanoma
M14 melanoma = tested on: M14 melanoma
MALME-3M melanoma = tested on: MALME-3M melanoma
MCF7 breast = tested on: MCF7 breast
MDA-MB-435 melanoma = tested on: MDA-MB-435 melanoma
MDA-MB-468 breast = tested on: MDA-MB-468 breast
MOLT-4 leukemia = tested on: MOLT-4 leukemia
NCI-H226 lung = tested on: NCI-H226 lung
NCI-H23 lung = tested on: NCI-H23 lung
NCI-H322M lung = tested on: NCI-H322M lung
NCI-H460 NSCLC = tested on: NCI-H460 NSCLC
NCI-H522 lung = tested on: NCI-H522 lung
NCI/ADR-RES ovarian = tested on: NCI/ADR-RES ovarian
OVCAR-3 ovarian = tested on: OVCAR-3 ovarian
OVCAR-4 ovarian = tested on: OVCAR-4 ovarian
OVCAR-5 ovarian = tested on: OVCAR-5 ovarian
OVCAR-8 ovarian = tested on: OVCAR-8 ovarian
PC-3 prostate = tested on: PC-3 prostate
RPMI-8226 leukemia = tested on: RPMI-8226 leukemia
RXF 393 renal = tested on: RXF 393 renal
SF-268 CNS = tested on: SF-268 CNS
SF-539 CNS = tested on: SF-539 CNS
SK-MEL-2 melanoma = tested on: SK-MEL-2 melanoma
SK-MEL-28 melanoma = tested on: SK-MEL-28 melanoma
SK-MEL-5 melanoma = tested on: SK-MEL-5 melanoma
SK-OV-3 ovarian = tested on: SK-OV-3 ovarian
SN12C renal = tested on: SN12C renal
SNB-19 CNS = tested on: SNB-19 CNS
SR leukemia = tested on: SR leukemia
T-47D breast = tested on: T-47D breast
TK-10 renal = tested on: TK-10 renal
U251 glioblastoma = tested on: U251 glioblastoma
UACC-257 melanoma = tested on: UACC-257 melanoma
UO-31 renal = tested on: UO-31 renal

C[C@@H](c1ccc2nccn2c1)n1nnc2ncc(-c3cnn(C)c3)nc21
GI50 ([…]-0 renal): > 100 µM
TGI (786-0 renal): > 100 µM
GI50 (A498 renal): > 100 µM
TGI (A498 renal): > 100 µM
GI50 (A549 NSCLC): > 100 µM
TGI (A549 NSCLC): > 100 µM
GI50 (ACHN renal): > 100 µM
TGI (ACHN renal): > 100 µM
GI50 (CCRF-CEM leukemia): > 71.6 µM
TGI (CCRF-CEM leukemia): > 100 µM
GI50 (COLO 205 colon): > 100 µM
TGI (COLO 205 colon): > 100 µM
GI50 (HCT-15 colon): > 100 µM
TGI (HCT-15 colon): > 100 µM
GI50 (HL-60(TB) leukemia): > 92.2 µM
TGI (HL-60(TB) leukemia): > 100 µM
GI50 (HS 578T breast): > 100 µM
TGI (HS 578T breast): > 100 µM
GI50 (HT29 colon): > 100 µM
TGI (HT29 colon): > 100 µM
GI50 (IGROV1 ovarian): > 100 µM
TGI (IGROV1 ovarian): > 100 µM
GI50 (K-562 leukemia): 44.8 µM
TGI (K-562 leukemia): > 100 µM
GI50 (KM12 colon): 35 µM
TGI (KM12 colon): > 100 µM
GI50 (LOX IMVI melanoma): > 65.9 µM
TGI (LOX IMVI melanoma): > 100 µM
GI50 (M14 melanoma): > 100 µM
TGI (M14 melanoma): > 100 µM
GI50 (MALME-3M melanoma): > 100 µM
TGI (MALME-3M melanoma): > 100 µM
GI50 (MCF7 breast): > 100 µM
TGI (MCF7 breast): > 100 µM
GI50 (MDA-MB-435 melanoma): > 100 µM
TGI (MDA-MB-435 melanoma): > 100 µM
GI50 (MDA-MB-468 breast): 22 µM
TGI (MDA-MB-468 breast): > 100 µM
GI50 (MOLT-4 leukemia): 51.5 µM
TGI (MOLT-4 leukemia): > 100 µM
GI50 (NCI-H226 lung): > 100 µM
TGI (NCI-H226 lung): > 100 µM
GI50 (NCI-H23 lung): 20.6 µM
TGI (NCI-H23 lung): > 100 µM
GI50 (NCI-H322M lung): > 100 µM
TGI (NCI-H322M lung): > 100 µM
GI50 (NCI-H460 NSCLC): > 100 µM
TGI (NCI-H460 NSCLC): > 100 µM
GI50 (NCI-H522 lung): > 75.5 µM
TGI (NCI-H522 lung): > 100 µM
GI50 (NCI/ADR-RES ovarian): > 100 µM
TGI (NCI/ADR-RES ovarian): > 100 µM
GI50 (OVCAR-3 ovarian): > 100 µM
TGI (OVCAR-3 ovarian): > 100 µM
GI50 (OVCAR-4 ovarian): > 94.4 µM
TGI (OVCAR-4 ovarian): > 100 µM
GI50 (OVCAR-5 ovarian): > 100 µM
TGI (OVCAR-5 ovarian): > 100 µM
GI50 (OVCAR-8 ovarian): > 100 µM
TGI (OVCAR-8 ovarian): > 100 µM
GI50 (PC-3 prostate): > 100 µM
TGI (PC-3 prostate): > 100 µM
GI50 (RPMI-8226 leukemia): > 68.8 µM
TGI (RPMI-8226 leukemia): > 100 µM
GI50 (RXF 393 renal): > 75.4 µM
TGI (RXF 393 renal): > 100 µM
GI50 (SF-268 CNS): > 100 µM
TGI (SF-268 CNS): > 100 µM
GI50 (SF-539 CNS): > 100 µM
TGI (SF-539 CNS): > 100 µM
GI50 (SK-MEL-2 melanoma): > 100 µM
TGI (SK-MEL-2 melanoma): > 100 µM
GI50 (SK-MEL-28 melanoma): > 100 µM
TGI (SK-MEL-28 melanoma): > 100 µM
GI50 (SK-MEL-5 melanoma): > 92.7 µM
TGI (SK-MEL-5 melanoma): > 100 µM
GI50 (SK-OV-3 ovarian): > 100 µM
TGI (SK-OV-3 ovarian): > 100 µM
GI50 (SN12C renal): > 63 µM
TGI (SN12C renal): > 100 µM
GI50 (SNB-19 CNS): > 100 µM
TGI (SNB-19 CNS): > 100 µM
GI50 (SR leukemia): 43.3 µM
TGI (SR leukemia): > 100 µM
GI50 (T-47D breast): > 61.2 µM
TGI (T-47D breast): > 100 µM
GI50 (TK-10 renal): > 100 µM
TGI (TK-10 renal): > 100 µM
GI50 (U251 glioblastoma): > 100 µM
TGI (U251 glioblastoma): > 100 µM
GI50 (UACC-257 melanoma): > 100 µM
TGI (UACC-257 melanoma): > 100 µM
GI50 (UO-31 renal): > 100 µM
TGI (UO-31 renal): > 100 µM
